Assay results: PubChem BioAssay AID248 (DTP/NCI, 2004)
“And” between values parts separate entries of the source, which are not always exact repeats. Equal entries are not always repeated. Toxic doses and inconclusive results are not listed. Cut-off read from the data, not from the text of the source: active = T/C of 150% or more; inactive = T/C below 125%.

Tested on: L1210 leukemia ip in BDF1 mice, survival T/C
Test: NCI In Vivo Anticancer Drug Screen. Data for tumor model L1210 Leukemia (intraperitoneal) in B6D2F1 (BDF1) mice
Settings: endpoint: mean survival time, higher = longer survival
Procedure, shortened: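 In this screen, tumor-bearing mice given compound are compared to those given vehicle, and their survival values are reported as a treated-to-control quotient.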

[1] = dose: 75.0 mg/kg/injection, schedule: Q01DX001 (ip), vehicle: carboxymethylcellulose (CMC)
[2] = dose: 150.0 mg/kg/injection, schedule: Q01DX001 (ip), vehicle: carboxymethylcellulose (CMC)
[3] = dose: 300.0 mg/kg/injection, schedule: Q01DX001 (ip), vehicle: carboxymethylcellulose (CMC)
[4] = dose: 100.0 mg/kg/injection, schedule: Q01DX001 (ip), vehicle: Klucel (hydroxypropylcellulose) (HPC)
[5] = dose: 200.0 mg/kg/injection, schedule: Q01DX001 (ip), vehicle: Klucel (hydroxypropylcellulose) (HPC)
[6] = dose: 100.0 mg/kg/injection, schedule: Q04DX002 (ip), vehicle: saline
[7] = dose: 200.0 mg/kg/injection, schedule: Q04DX002 (ip), vehicle: saline
[8] = dose: 100.0 mg/kg/injection, schedule: Q04DX003 (ip), vehicle: Klucel (hydroxypropylcellulose) (HPC)
[9] = dose: 200.0 mg/kg/injection, schedule: Q04DX003 (ip), vehicle: Klucel (hydroxypropylcellulose) (HPC)
[10] = dose: 100.0 mg/kg/injection, schedule: Q01DX009 (ip), vehicle: saline
[11] = dose: 200.0 mg/kg/injection, schedule: Q01DX009 (ip), vehicle: saline
[12] = dose: 100.0 mg/kg/injection, schedule: Q01DX009 (ip), vehicle: saline with Tween-80
[13] = dose: 100.0 mg/kg/injection, schedule: Q04DX003 (ip), vehicle: saline with Tween-80
[14] = dose: 200.0 mg/kg/injection, schedule: Q01DX009 (ip), vehicle: saline with Tween-80
[15] = dose: 200.0 mg/kg/injection, schedule: Q04DX003 (ip), vehicle: saline with Tween-80
[16] = dose: 400.0 mg/kg/injection, schedule: Q01DX009 (ip), vehicle: saline with Tween-80
[17] = dose: 400.0 mg/kg/injection, schedule: Q04DX003 (ip), vehicle: saline with Tween-80
[18] = dose: 400.0 mg/kg/injection, schedule: Q04DX003 (ip), vehicle: Klucel (hydroxypropylcellulose) (HPC)
[19] = dose: 100.0 mg/kg/injection, schedule: Q04DX003 (ip), vehicle: saline
[20] = dose: 200.0 mg/kg/injection, schedule: Q04DX003 (ip), vehicle: saline
[21] = dose: 400.0 mg/kg/injection, schedule: Q04DX003 (ip), vehicle: saline
[22] = dose: 100.0 mg/kg/injection, schedule: Q01DX001 (ip), vehicle: carboxymethylcellulose (CMC)
[23] = dose: 200.0 mg/kg/injection, schedule: Q01DX001 (ip), vehicle: carboxymethylcellulose (CMC)

Measured: T/C

N#C[SH2+].N#C[SH2+].N#C[SH2+].N#C[SH2+].[Cu+2].c1ccc(C[P+](c2ccccc2)(c2ccccc2)c2ccccc2)cc1
inactive: dose: 6.0 mg/kg/injection, schedule: Q01DX009 (ip), vehicle: saline 100 % of control

CC(C)CSC(SCC(C)C)C(O)C(O)C(O)CO (stereo unspecified)
inactive: [1] 98 % of control | [2] 109 % of control | [3] 97 % of control

CC1=C(CO)C(=O)O[C@@H]([C@@H](C)[C@H]2CC[C@H]3[C@@H]4C[C@H]5O[C@]56[C@@H](O)C=CC(=O)[C@]6(C)[C@H]4CC[C@]23C)C1
inactive: dose: 10.0 mg/kg/injection, schedule: Q01DX Z (ip), vehicle: carboxymethylcellulose (CMC) 98 % of control | dose: 20.0 mg/kg/injection, schedule: Q01DX Z (ip), vehicle: carboxymethylcellulose (CMC) 101 % of control | dose: 50.0 mg/kg/injection, schedule: Q01DX001 (sc), vehicle: steriod suspending solution 103 % of control | dose: 100.0 mg/kg/injection, schedule: Q01DX001 (sc), vehicle: steriod suspending solution 100 % of control | dose: 200.0 mg/kg/injection, schedule: Q01DX001 (sc), vehicle: steriod suspending solution 103 % of control

CC(C)NC(=S)Nc1ccccc1
inactive: dose: 75.0 mg/kg/injection, schedule: Q01DX001 (ip), vehicle: other 102 % of control

Cc1ncc(C#N)n1C(C)c1ccccc1 (stereo unspecified)
inactive: [4] 103 % of control | [5] 100 % of control

NC(=S)N/N=C/c1c(Cl)[nH]c2ccccc12
inactive: dose: 50.0 mg/kg/injection, schedule: Q04DX002 (ip), vehicle: saline 98 % of control | [6] 102 % of control | [7] 98 % of control

c1cc[c]([Pb]([c]2ccccc2)([c]2ccccc2)[n]2c3ccccc3c3ccccc32)cc1
inactive: dose: 1.56 mg/kg/injection, schedule: Q01DX009 (ip), vehicle: saline with Tween-80 99 % of control | dose: 3.12 mg/kg/injection, schedule: Q01DX009 (ip), vehicle: saline with Tween-80 98 % of control | dose: 6.25 mg/kg/injection, schedule: Q01DX009 (ip), vehicle: saline with Tween-80 91 % of control

O=C(O)C(Oc1ccc(Cl)cc1)c1ccc(Cl)cc1 (stereo unspecified)
inactive: [8] 96 % of control | [9] 91 % of control

CCc1ccccc1NC(=O)N1CCN(C)CC1
inactive: [10] 104 % of control | [11] 92 % of control

c1ccc(Nc2n[n+](-c3ccccc3)no2)cc1
inactive: [12] 106 % of control | [13] 108 % of control | [14] 101 % of control | [15] 100 % of control | [16] 108 % of control | [17] 110 % of control

CC(C)CP(=O)(CC(C)C)C1CCCCC1
inactive: [13] 97 % of control | [15] 99 % of control

Cn1cnc2c(SCc3ccccc3)ncnc21
inactive: dose: 75.0 mg/kg/injection, schedule: Q01DX009 (ip), vehicle: saline with Tween-80 97 % of control | [12] 104 % of control | [14] 117 % of control

O=c1cc(COc2ccccc2Cl)[nH]c(=O)[nH]1
inactive: [13] 95 % of control | [15] 95 % of control | [17] 95 % of control

CCC(Cl)COP(=O)(OCC(Cl)CC)C(c1ccc(Cl)c(Cl)c1)P(=O)(OCC(Cl)CC)OCC(Cl)CC (stereo unspecified)
inactive: [8] 101 % of control | [9] 98 % of control | [18] 96 % of control

CCOc1ccccc1NC(=O)Oc1ccc(-c2ccccc2)cc1
inactive: [12] 98 % of control | [14] 100 % of control | [16] 93 % of control

CSc1nnc(-c2ccncc2)s1
inactive: [19] 104 % of control | [20] 107 % of control

C1=C(c2ccccc2)[P+](c2ccccc2)(c2ccccc2)C=C(c2ccccc2)[P+]1(c1ccccc1)c1ccccc1
inactive: dose: 12.5 mg/kg/injection, schedule: Q01DX009 (ip), vehicle: saline 108 % of control | dose: 12.5 mg/kg/injection, schedule: Q04DX003 (ip), vehicle: saline 106 % of control | dose: 25.0 mg/kg/injection, schedule: Q01DX009 (ip), vehicle: saline 109 % of control | dose: 25.0 mg/kg/injection, schedule: Q04DX003 (ip), vehicle: saline 109 % of control | dose: 50.0 mg/kg/injection, schedule: Q04DX003 (ip), vehicle: saline 102 % of control

Clc1nc2nsnc2nc1Cl
inactive: dose: 25.0 mg/kg/injection, schedule: Q01DX009 (ip), vehicle: saline with Tween-80 91 % of control | dose: 50.0 mg/kg/injection, schedule: Q01DX009 (ip), vehicle: saline with Tween-80 110 % of control | [12] 96 % of control | [14] 104 % of control | [16] 94 % of control

CCOC(=O)/C(C)=N\N(C)C
inactive: [10] 92 % of control | [19] 97 % of control | [11] 92 % of control | [20] 101 % of control | [21] 88 % of control

[NH-]CC(=O)O.[NH-]CC(=O)O.[Pt+2]
inactive: dose: 14.0 mg/kg/injection, schedule: Q01DX009 (ip), vehicle: other 89 % of control | dose: 27.9 mg/kg/injection, schedule: Q01DX001 (ip), vehicle: other 93 % of control | dose: 28.0 mg/kg/injection, schedule: Q01DX009 (ip), vehicle: other 100 % of control | dose: 55.8 mg/kg/injection, schedule: Q01DX001 (ip), vehicle: other 89 % of control | dose: 56.0 mg/kg/injection, schedule: Q01DX009 (ip), vehicle: other 96 % of control | dose: 112.0 mg/kg/injection, schedule: Q01DX001 (ip), vehicle: other 97 % of control | dose: 112.0 mg/kg/injection, schedule: Q01DX009 (ip), vehicle: other 113 % of control | dose: 223.0 mg/kg/injection, schedule: Q01DX001 (ip), vehicle: other 109 % of control

Cc1cc(O)ccc1C#N
inactive: [6] 102 % of control | [7] 102 % of control | dose: 400.0 mg/kg/injection, schedule: Q04DX002 (ip), vehicle: saline 104 % of control

CC(CS)CS
inactive: [22] 95 % of control | [23] 95 % of control | dose: 400.0 mg/kg/injection, schedule: Q01DX001 (ip), vehicle: carboxymethylcellulose (CMC) 95 % of control

O=C(O)/C=C/C(=O)Nc1ccc2c(c1)C(NC(=O)/C=C/C(=O)O)c1ccccc1-2 (stereo unspecified)
inactive: dose: 100.0 mg/kg/injection, schedule: Q01DX001 (ip), vehicle: saline 93 % of control | [19] 100 % of control | dose: 200.0 mg/kg/injection, schedule: Q01DX001 (ip), vehicle: saline 97 % of control | [20] 96 % of control | dose: 400.0 mg/kg/injection, schedule: Q01DX001 (ip), vehicle: saline 88 % of control | [21] 92 % of control

CCc1cc(/C=C2\C(=O)C=Cc3ccccc32)c(O)s1
inactive: dose: 100.0 mg/kg/injection, schedule: Q04DX002 (ip), vehicle: saline with Tween-80 89 % of control | dose: 400.0 mg/kg/injection, schedule: Q04DX002 (ip), vehicle: saline with Tween-80 89 % of control

CC1CCC(C(O)(C(=O)O)C2CCCCC2)CC1C (stereo unspecified)
inactive: [1] 97 % of control | [2] 105 % of control | [3] 100 % of control

CN(C(=S)c1ccc(Cl)cc1)c1ccccc1
inactive: [4] 103 % of control | [8] 92 % of control | [5] 98 % of control | [9] 102 % of control | dose: 400.0 mg/kg/injection, schedule: Q01DX001 (ip), vehicle: Klucel (hydroxypropylcellulose) (HPC) 103 % of control | [18] 97 % of control

Cc1cccc(C(=O)N(C)C(c2ccco2)P(=O)(c2ccccc2)c2ccccc2)c1 (stereo unspecified)
inactive: dose: 50.0 mg/kg/injection, schedule: Q01DX001 (ip), vehicle: carboxymethylcellulose (CMC) 103 % of control | dose: 50.0 mg/kg/injection, schedule: Q01DX009 (ip), vehicle: carboxymethylcellulose (CMC) 94 % of control and 92 % of control | [22] 104 % of control | dose: 100.0 mg/kg/injection, schedule: Q01DX009 (ip), vehicle: carboxymethylcellulose (CMC) 94 % of control and 95 % of control | [23] 95 % of control | dose: 200.0 mg/kg/injection, schedule: Q01DX009 (ip), vehicle: carboxymethylcellulose (CMC) 89 % of control
